Test results published in patent US20100222421A1, “Usage of Baicalein in the Preparation of a Pharmaceutical Composition for the Treatment of Traumatic Brain Injury” (National Defense Medical Center, priority 2009, published 2010).

Assays:
IL-1β protein = assay: ELISA, IL-1β protein after CCI injury; type: in vivo, rat; details: single-dose 30 mg kg^-1 i.p.; ipsilateral cortex, 1 day post-injury; P<0.01
Description: A previously described CCI injury procedure was utilized (Chen et al., 2003). Male Sprague-Dawley rats, which have body weight of 250-300 g, were anaesthetized with sodium pentobarbital (i.p.; 50 mgkg^−1; Rhone Merieux, Harlow, UK) and placed in a stereotaxic frame. A 5-mm craniotomy was performed over the left parietal cortex, centered on the coronal suture and 3 mm lateral to the sagittal suture. Considerable care was taken to avoid injury to the underlying dura. Injury was made using a pneumatic piston with a rounded metal tip (2.5 mm diameter) that was angled 22.5° C. to the vertical so that the tip was perpendicular with the brain surface at the centre of the craniotomy. A velocity of 4 ms^−1 and a deformation depth 2 mm below the dura were used. […] Body temperature was monitored throughout the surgery by a rectal probe; temperature was maintained at 37.0±0.5° C. using a heated pad. […]
Single-dose baicalein (30 mg kg^−1) or a corresponding volume of vehicle was administered i.p. immediately following injury. […] Testing after injury was as follows: (1) real-time quantitative RT-PCR analysis for TNF-α, IL-1β and IL-6 mRNA expression at 6 h post-injury (n=7 for each group); (2) FluoroJade B (FJB) staining, TNF-α, IL-1β and IL-6 immunohistochemistry, as well as ELISA at 24 h post-injury to assess degenerative neurons and to determine cytokine expression (n=7 for each group). […]

[1] = test system: rats with controlled cortical impact (CCI) injury; assay: Cortical contusion volume, cresyl violet staining; type: in vivo, rat
Description: A previously described CCI injury procedure was utilized (Chen et al., 2003). Male Sprague-Dawley rats, which have body weight of 250-300 g, were anaesthetized with sodium pentobarbital (i.p.; 50 mgkg^−1; Rhone Merieux, Harlow, UK) and placed in a stereotaxic frame. A 5-mm craniotomy was performed over the left parietal cortex, centered on the coronal suture and 3 mm lateral to the sagittal suture. Considerable care was taken to avoid injury to the underlying dura. Injury was made using a pneumatic piston with a rounded metal tip (2.5 mm diameter) that was angled 22.5° C. to the vertical so that the tip was perpendicular with the brain surface at the centre of the craniotomy. A velocity of 4 ms^−1 and a deformation depth 2 mm below the dura were used. The bone flap was immediately replaced and sealed, and the scalp was closed with sutures. Body temperature was monitored throughout the surgery by a rectal probe; temperature was maintained at 37.0±0.5° C. using a heated pad. Rats were placed in a heated cage to maintain body temperature, while recovering from anaesthesia. Baicalein (30 mg kg^−1) dissolved in 10% dimethyl sulphoxide (0.25-0.3 mL) or a corresponding volume of vehicle (10% dimethyl sulphoxide) was administered i.p. immediately following injury or daily for 4 days (immediately, 25, 49 and 73 h) after injury. Behaviour testing using the rotarod, tactile adhesive removal, mNSS and beam walk tests was performed at 28 hours as well as 4, 7, 14, 21 and 28 days post-injury. At 14 and 28 days, the animals were killed, perfused intravascularly and their brains were processed with cresyl violet staining to assess contusion volume (n=8 for each group). […] Following with terminal anaesthesia, rats were killed by transcardial perfusion first with phosphate-buffered saline (PBS) and then with 4% paraformaldehyde and their tissues were processed on day 1 (for FJB staining and cytokine immunohistochemistry), day 14 (for cresyl violet histology) and day 28 (for cresyl violet histology), post-injury. All solutions were maintained at pH 7.4 and 4° C. Brains were removed and post-fixed in 4% paraformaldehyde overnight and transferred to PBS containing 30% sucrose and 0.1% sodium azide, manufactured by Sigma Chemical Co. located at St Louis, Mo., USA, for cryoprotection. Coronal sections were cut in a cryostat at […] from the level of the olfactory bulbs to the visual cortex. Every 50th slice was used for cresyl violet histology, FJB staining or immunohistochemistry. The distance between similarly stained sections within each group was thus […], with approximately 20 sections per group. […] To measure contusion volumes, cresyl violet-stained sections were digitized and analyzed using a ×1.5 objective and computer image analysis system (Scion Image, Beta Release 4.0.2; Scion Corp., Frederick, Md., USA). […] Contusion area was calculated from all images of cresyl violet-stained sections that contained contused brain; volume measurement was computed by summation of areas multiplied by interslice distance (500 μm).

O=c1cc(-c2ccccc2)oc2cc(O)c(O)c(O)c12 [baicalein]
IL-1β protein concentration, % of concentration in vehicle-treated rats (IL-1β protein): 42% | contusion volume, single-dose versus multiple-dose groups ([1]; 30 mg kg^-1 i.p., days 14 and 28, P>0.05): no significant difference | reduction of contusion volume versus vehicle ([1]; multiple doses 30 mg kg^-1 i.p. daily for 4 days, 14 days post-injury): 42% | reduction of contusion volume versus vehicle ([1]; multiple doses 30 mg kg^-1 i.p. daily for 4 days, 28 days post-injury): 42% | reduction of contusion volume versus vehicle ([1]; single dose 30 mg kg^-1 i.p., 14 days post-injury): 32% | reduction of contusion volume versus vehicle ([1]; single dose 30 mg kg^-1 i.p., 28 days post-injury): 34%
